Read-outs that look alike come from different tables or passages of the source.
Experiments:
HCV GT1a(H77) replicon = test: HCV replicon luciferase reporter assay, genotype 1a; assay type: cell-based, HCV genotype 1a; settings: Hepatitis C virus, 72 h, HUH-7 cells, Renilla luciferase, 3 days incubation
From the text: A stable HCV GT1a(H77) replicon luciferase reporter cell line (Yanagi M, Purcell RH, Emerson S U, et al. Transcripts from a single full-length cDNA clone of hepatitis C virus are infectious when directly transfected into the liver of a chimpanzee. Proc Natl Acad Sci USA 1997; 94(16):8738-8743) was generated as described previously for the genotype 1b(Con1) replicon luciferase cell line. The replicon construct was modified by introducing mutations into the genes encoding the NS3 helicase domain (proline replaced by leucine at position 1496) and NS5A (serine to isoleucine at position 2204) to improve replication in cell culture.
(§1) HCV replicon luciferase assays were developed to monitor the inhibitory effects of compounds described in the disclosure on HCV genotypes 1a and 1b viral replication. HUH-7 cells, constitutively expressing the HCV replicon, were grown in Dulbecco's Modified Eagle Media (DMEM) (Gibco-BRL) containing 10% Fetal calf serum (FCS) (Sigma) and 1 mg/mL G418 (Gibco-BRL). Compounds were serially diluted 3 folds in DMSO for a twenty-point titration and subsequently transferred to sterile 384-well tissue-culture treated plates (Corning cat #3571). The plates were then seeded with 50 μL of cells at a density of 3.0×10^3 cells/well in DMEM containing 4% FCS (final DMSO concentration at 0.5%). After 3 days incubation at 37° C., cells were analyzed for Renilla Luciferase activity using the EnduRen as substrate (Promega cat #E6485). The EnduRen substrate was diluted in DMEM and then added to the plates to a final concentration of 7.5 μM. The plates were incubated for 2 hrs at 37° C. and then read immediately for 30 seconds with Viewlux Imager (PerkinElmer) using a luminescence program. To assess cytotoxicity of compounds, CC50 values were generated by multiplexing the EnduRen-containing plates with Cell Titer-Blue (Promega, cat #G8082). Cell-Titer Blue (3 μL) was added to each well and incubated for 8 hrs at 37° C. The fluorescence signal from each well was read, with an excitation wavelength at 525/10 nm and an emission wavelength of 598/10 nm, using the Viewlux Imager.
(§2) The EC50 values for compounds were calculated by using a four-parameter logistic equation: y=A+[…])/(1+((C/x)^D))), where A and B denotes minimal and maximal % inhibition, respectively, C is the EC50, D is the hill slope and x represents compound concentration.

HCV GT1b(Con1) replicon = test: HCV replicon luciferase reporter assay, genotype 1b; assay type: cell-based, HCV genotype 1b; settings: Hepatitis C virus, 72 h, HUH-7 cells, Renilla luciferase, 3 days incubation
From the text: An HCV GT1b(Con1) replicon cell system was established as described by Lohmann V, Korner F, Koch J, Herian U, Theilmann L, Bartenschlager R., Science 285(5424):110-3 (1999) and modified to introduce a luciferase reporter (Krieger N, Lohmann V, and Bartenschlager R, J. Virol. 75(10):4614-4624 (2001)). cDNA encoding a humanized form of the Renilla luciferase gene, and a linker sequence fused directly to the 3′-end of the luciferase gene were introduced into the replicon construct using an Asc1 restriction site located in core, directly upstream of the neomycin marker gene. The adaptive mutation at position 1179 (serine to isoleucine) was also introduced (Blight K J, Kolykhalov, A A, Rice, C M, Science 290(5498):1972-1974). A stable cell line constitutively expressing this HCV replicon construct was generated by first linearizing plasmid DNAs with ScaI. RNA transcripts were synthesized in vitro using the T7 MegaScript transcription kit (Ambion, Austin, Tex.) according to manufacturer's directions. In vitro transcripts of the cDNA were transfected into the human hepatoma cell line, HUH-7. […] Resulting cell lines were characterized for positive and negative strand RNA production and protein production over time.
as §1, §2

In the case of `C[C@H]1CC/C=C\[C@@H]2C[C@@]2(C(=O)NS(=O)(=O)C2(C)CC2)NC(=O)[C@@H]2C[C@@H](Oc3cc(-c4nccs4)ccn3)CN2C(=O)[C@@H](NC(=O)OC(C)(C)C(F)(F)F)[C@H](C)C1` [Compound 1032, 1,1,1-trifluoro-2-methylpropan-2-yl ((2R,6S,7R,9S,13aS,14aR,16aS,Z)-7,9-dimethyl-14a-(((1-methylcyclopropyl)sulfonyl)carbamoyl)-5,16-dioxo-2-((4-(thiazol-2-yl)pyridin-2-yl)oxy)-1,2,3,5,6,7,8,9,10,11,13a,14,14a,15,16,16a-hexadecahydrocyclopropa[e]pyrrolo[1,2-a][1,4]diazacyclopentadecin-6-yl)carbamate], the EC50 (HCV GT1a(H77) replicon; read-out: LE_1a (EC50, range)) is reported as 5.01 to 35 nM and the EC50 (HCV GT1b(Con1) replicon; read-out: LE_1b (EC50, range)) is reported as 5.01 to 35 nM.
`CC(C)Oc1ccc(-c2cc(O[C@@H]3C[C@H]4C(=O)N[C@]5(C(=O)NS(=O)(=O)C6(C)CC6)C[C@H]5/C=C\CC[C@H](C)C[C@@H](C)[C@H](NC(=O)OC(C)(C)C(F)(F)F)C(=O)N4C3)cc(-n3cccn3)n2)cc1` [Compound 1014, 1,1,1-trifluoro-2-methylpropan-2-yl ((2R,6S,7R,9S,13aS,14aR,16aS,Z)-2-((2-(4-isopropoxyphenyl)-6-(1H-pyrazol-1-yl)pyridin-4-yl)oxy)-7,9-dimethyl-14a-(((1-methylcyclopropyl)sulfonyl)carbamoyl)-5,16-dioxo-1,2,3,5,6,7,8,9,10,11,13a,14,14a,15,16,16a-hexadecahydrocyclopropa[e]pyrrolo[1,2-a][1,4]diazacyclopentadecin-6-yl)carbamate] showed an EC50 (HCV GT1a(H77) replicon; read-out: LE_1a (EC50, range)) of 35 to 359 nM and an EC50 (HCV GT1b(Con1) replicon; read-out: LE_1b (EC50, range)) of 5.01 to 35 nM.
Work on `CC[C@@H]1O[C@H](C)CC/C=C\[C@@H]2C[C@@]2(C(=O)NS(=O)(=O)C2(C)CC2)NC(=O)[C@@H]2C[C@@H](Oc3cc(-c4ccc(OC(C)C)cc4)nc(-c4cncs4)c3)CN2C(=O)[C@H]1NC(=O)OC(C)(C)C(F)(F)F` [Compound 1033, 1,1,1-trifluoro-2-methylpropan-2-yl ((2R,6S,7S,9R,13aS,14aR,16aS,Z)-7-ethyl-2-((2-(4-isopropoxyphenyl)-6-(thiazol-5-yl)pyridin-4-yl)oxy)-9-methyl-14a-(((1-methylcyclopropyl)sulfonyl)carbamoyl)-5,16-dioxo-2,3,5,6,7,9,10,11,13a,14,14a,15,16,16a-tetradecahydro-1H-cyclopropa[i]pyrrolo[1,2-e][1,5,8]oxadiazacyclopentadecin-6-yl)carbamate] yielded an EC50 (HCV GT1a(H77) replicon; read-out: LE_1a (EC50, range)) of 1.01 to 5 nM and an EC50 (HCV GT1b(Con1) replicon; read-out: LE_1b (EC50, range)) of 0.51 to 1 nM.
In the case of `CC(C)Oc1ccc(-c2cc(O[C@@H]3C[C@H]4C(=O)N[C@]5(C(=O)NS(=O)(=O)C6(C)CC6)C[C@H]5/C=C\CC[C@@H](C)C[C@@H](C)[C@H](NC(=O)OC(C)(C)C(F)(F)F)C(=O)N4C3)cc(-n3cccn3)n2)cc1` [Compound 1013, 1,1,1-trifluoro-2-methylpropan-2-yl ((2R,6S,7R,9R,13aS,14aR,16aS,Z)-2-((2-(4-isopropoxyphenyl)-6-(1H-pyrazol-1-yl)pyridin-4-yl)oxy)-7,9-dimethyl-14a-(((1-methylcyclopropyl)sulfonyl)carbamoyl)-5,16-dioxo-1,2,3,5,6,7,8,9,10,11,13a,14,14a,15,16,16a-hexadecahydrocyclopropa[e]pyrrolo[1,2-a][1,4]diazacyclopentadecin-6-yl)carbamate], the EC50 (HCV GT1a(H77) replicon; read-out: LE_1a (EC50, range)) is reported as 1.01 to 5 nM and the EC50 (HCV GT1b(Con1) replicon; read-out: LE_1b (EC50, range)) is reported as 1.01 to 5 nM.
With `CC(C)Oc1ccc(-c2cc(Cl)cc(O[C@@H]3C[C@H]4C(=O)N[C@]5(C(=O)NS(=O)(=O)C6(C)CC6)C[C@H]5/C=C\CC[C@H](C)C[C@@H](C)[C@H](NC(=O)OC(C)(C)C(F)(F)F)C(=O)N4C3)n2)cc1` [Compound 1028, 1,1,1-trifluoro-2-methylpropan-2-yl ((2R,6S,7R,9S,13aS,14aR,16aS,Z)-2-((4-chloro-6-(4-isopropoxyphenyl)pyridin-2-yl)oxy)-7,9-dimethyl-14a-(((1-methylcyclopropyl)sulfonyl)carbamoyl)-5,16-dioxo-1,2,3,5,6,7,8,9,10,11,13a,14,14a,15,16,16a-hexadecahydrocyclopropa[e]pyrrolo[1,2-a][1,4]diazacyclopentadecin-6-yl)carbamate] the EC50 (HCV GT1a(H77) replicon; read-out: LE_1a (EC50, range)) was 35 to 359 nM and the EC50 (HCV GT1b(Con1) replicon; read-out: LE_1b (EC50, range)) was 35 to 359 nM.
`CC[C@@H]1C[C@H](C)CC/C=C\[C@@H]2C[C@@]2(C(=O)NS(=O)(=O)C2CC2)NC(=O)[C@@H]2C[C@@H](Oc3ccc(-c4nccs4)cn3)CN2C(=O)[C@H]1NC(=O)OC(C)(C)C(F)(F)F` [Compound 1063, 1,1,1-trifluoro-2-methylpropan-2-yl ((2R,6S,7R,9R,13aS,14aR,16aS,Z)-14a-((cyclopropylsulfonyl)carbamoyl)-7-ethyl-9-methyl-5,16-dioxo-2-((5-(thiazol-2-yl)pyridin-2-yl)oxy)-1,2,3,5,6,7,8,9,10,11,13a,14,14a,15,16,16a-hexadecahydrocyclopropa[e]pyrrolo[1,2-a][1,4]diazacyclopentadecin-6-yl)carbamate] gave an EC50 (HCV GT1a(H77) replicon; read-out: LE_1a (EC50)) of 16.7 nM, an EC50 (HCV GT1a(H77) replicon; read-out: LE_1a (EC50, range)) of 5.01 to 35 nM and an EC50 (HCV GT1b(Con1) replicon; read-out: LE_1b (EC50)) of 3.51 nM. For the same molecule, the EC50 (HCV GT1b(Con1) replicon; read-out: LE_1b (EC50, range)) was 1.01 to 5 nM.
For `Cc1cnc(-c2cc(O[C@@H]3C[C@H]4C(=O)N[C@]5(C(=O)NS(=O)(=O)C6(C)CC6)C[C@H]5/C=C\CC[C@@H](C)C[C@@H](C)[C@H](NC(=O)OC(C)(C)C(F)(F)F)C(=O)N4C3)ccn2)s1` [Compound 1043, 1,1,1-trifluoro-2-methylpropan-2-yl ((2R,6S,7R,9R,13aS,14aR,16aS,Z)-7,9-dimethyl-14a-(((1-methylcyclopropyl)sulfonyl)carbamoyl)-2-((2-(5-methylthiazol-2-yl)pyridin-4-yl)oxy)-5,16-dioxo-1,2,3,5,6,7,8,9,10,11,13a,14,14a,15,16,16a-hexadecahydrocyclopropa[e]pyrrolo[1,2-a][1,4]diazacyclopentadecin-6-yl)carbamate], the EC50 (HCV GT1a(H77) replicon; read-out: LE_1a (EC50, range)) was 0.51 to 1 nM and the EC50 (HCV GT1b(Con1) replicon; read-out: LE_1b (EC50, range)) was 0.1 to 0.5 nM.
Work on `CC(C)Oc1ccc(-c2cc(O[C@@H]3C[C@H]4C(=O)N[C@]5(C(=O)NS(=O)(=O)C6(C)CC6)C[C@H]5/C=C\CC[C@@H](C)C[C@@H](C)[C@H](NC(=O)OC(C)(C)C(F)(F)F)C(=O)N4C3)cc(-c3nccs3)n2)cn1` [Compound 1046, 1,1,1-trifluoro-2-methylpropan-2-yl ((2R,6S,7R,9R,13aS,14aR,16aS,Z)-2-((6′-isopropoxy-6-(thiazol-2-yl)-[2,3′-bipyridin]-4-yl)oxy)-7,9-dimethyl-14a-(((1-methylcyclopropyl)sulfonyl)carbamoyl)-5,16-dioxo-1,2,3,5,6,7,8,9,10,11,13a,14,14a,15,16,16a-hexadecahydrocyclopropa[e]pyrrolo[1,2-a][1,4]diazacyclopentadecin-6-yl)carbamate] yielded an EC50 (HCV GT1a(H77) replicon; read-out: LE_1a (EC50, range)) of 1.01 to 5 nM and an EC50 (HCV GT1b(Con1) replicon; read-out: LE_1b (EC50, range)) of 1.01 to 5 nM.
With `CC(C)Oc1ccc(-c2cc(O[C@@H]3C[C@H]4C(=O)N[C@]5(C(=O)NS(=O)(=O)C6(C)CC6)C[C@H]5/C=C\CC[C@H](C)C[C@@H](C)[C@H](NC(=O)OC(C)(C)C(F)(F)F)C(=O)N4C3)cc(-c3nccs3)n2)cc1` [Compound 1008, 1,1,1-trifluoro-2-methylpropan-2-yl ((2R,6S,7R,9S,13aS,14aR,16aS,Z)-2-((2-(4-isopropoxyphenyl)-6-(thiazol-2-yl)pyridin-4-yl)oxy)-7,9-dimethyl-14a-(((1-methylcyclopropyl)sulfonyl)carbamoyl)-5,16-dioxo-1,2,3,5,6,7,8,9,10,11,13a,14,14a,15,16,16a-hexadecahydrocyclopropa[e]pyrrolo[1,2-a][1,4]diazacyclopentadecin-6-yl)carbamate] the EC50 (HCV GT1a(H77) replicon; read-out: LE_1a (EC50, range)) was 5.01 to 35 nM and the EC50 (HCV GT1b(Con1) replicon; read-out: LE_1b (EC50, range)) was 1.01 to 5 nM.

Reference: patent US9334279B2, “Hepatitis C virus inhibitors” (BRISTOL-MYERS SQUIBB COMPANY, priority 2012, dated 2016)
